These are literature values, as cited in patent publication US12201712B2, “Method for dyeing keratinous material, comprising the use of an organosilicon compound, a phosphoric acid ester and a dyeing compound” (Henkel AG & Co. KGaA, priority 2020, dated 2025).

The structures appear in SMILES notation.

`CCN(Cc1cccc(S(=O)(=O)O)c1)c1ccc(C(=C2C=CC(=[N+](CC)Cc3cccc(S(=O)(=O)O)c3)C=C2)c2ccccc2S(=O)(=O)[O-])cc1` [Acid Blue 9]: under “25° C.”, the water solubility entry was “greater than 20 wt. %”.
For `O=S(=O)(O)c1ccc(N=Nc2c(O)ccc3ccccc23)cc1` [Acid Orange 7, 4-[(2-hydroxy-1-naphthyl)azo]benzene sulphonate], the solubility in water result (25° C.) was “more than 7 g/L”.
Take `O=[N+]([O-])c1cc([N+](=O)[O-])c2ccc(S(=O)(=O)O)cc2c1O` [Acid Yellow 9, 8-hydroxy-5,7-dinitro-2-naphthalenesulfonic acid]: the solubility in water result (25° C.) is given as “above 40 g/L”.
Consider `O=C(O)C1=NN(c2ccc(S(=O)(=O)O)cc2)C(=O)C1N=Nc1ccc(S(=O)(=O)O)cc1` (stereo not shown) [Acid Yellow 23, 4,5-dihydro-5-oxo-1-(4-sulfophenyl)-4-((4-sulfophenyl)azo)-1H-pyrazole-3-carboxylic acid], for which, where the note is “at 25° C.”, the “solubility in water (in words)” value is given as “readily soluble in water”.
